Test systems include A498; A549; ACHN; CAKI-1; CCRF-CEM; COLO 205; HCT-116; HOP-62; M14; MDA-MB-231; MOLT-4; NCI-H460; NCI-H522; OVCAR-5; SF-539; SK-OV-3; SNB-19; SR; SW-620; UO-31.
Holding throughout (assay): DTP human tumour cell line panel, 48 h

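Cells were grown in 96-well plates and exposed to each compound for 48 hours at five concentrations; endpoints were interpolated linearly between bracketing concentrations, or set to the highest concentration if not reached. GI50: concentration for 50% inhibition of growth.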 Active and inactive are the calls of the source. No stated cut-off is given here; in the data, active = GI50 up to about 1.1 µM and inactive = higher. Where only a bound is given, the exact number is not on record here.

The term GI50 denotes the concentration that inhibits growth by half. `CC(C)(Br)C(Br)CC/C(=C/CBr)CBr.CC(C)(Br)C(Br)CC/C(=C\CBr)CBr` (configuration not stated): the GI50 in the assay on A498 is 20.9 µM (inactive); in the assay with A549, 13.9 µM (inactive); with ACHN, 5.83 µM (inactive); in the assay with CAKI-1, 9.91 µM (inactive); in the assay on CCRF-CEM, 0.91 µM (active); with COLO 205, 3.27 µM (inactive). The GI50 is 2.13 µM (inactive) in the assay on HCT-116; 2.89 µM (inactive) in the assay on HOP-62; 2.02 µM (inactive) in the assay with M14; 12 µM (inactive) in the assay with MDA-MB-231; 2.1 µM (inactive) in the assay on MOLT-4; 3.21 µM (inactive) in the assay on NCI-H460. Further, the GI50 with NCI-H522 is 1.66 µM (inactive); in the assay with OVCAR-5 it was 18.6 µM (inactive); with SF-539, 4.66 µM (inactive); in the assay on SK-OV-3, 21.4 µM (inactive); in the assay on SNB-19, 14.4 µM (inactive); in the assay on SR it was 0.783 µM (active). Further, the GI50 in the assay on SW-620 was 2.71 µM (inactive); in the assay on UO-31, 14.3 µM (inactive).

With `COc1cc(N(CCC#N)CCC#N)ccc1/C=C1\SC(=S)NC1=O`, the GI50 in the assay with A498, with A549, in the assay on ACHN, in the assay with CAKI-1, in the assay with CCRF-CEM and in the assay with COLO 205 was > 100 µM (inactive) each time. For the same compound, the GI50 in the assay with HCT-116, in the assay on HOP-62, in the assay on M14, in the assay on MDA-MB-231, in the assay on MOLT-4 and in the assay with NCI-H460 was > 100 µM (inactive) each time. In addition, the GI50 in the assay with NCI-H522, in the assay on OVCAR-5, in the assay with SF-539, with SK-OV-3, in the assay with SNB-19 and in the assay on SR was > 100 µM (inactive) each time. The GI50 in the assay on SW-620 and in the assay with UO-31 was > 100 µM (inactive) in each case.

Regarding `C=C(C=O)c1c2c(nc3ccccc13)C(=O)c1ccccc1C2=O`, the GI50 is 1.46 µM (inactive) in the assay with A498; 1.86 µM (inactive) in the assay on A549; 0.434 µM (active) in the assay with ACHN; 0.52 µM (active) with CAKI-1; 0.191 µM (active) with CCRF-CEM; 1.1 µM (active) with COLO 205. The GI50 with HCT-116 is 0.619 µM (active); in the assay with HOP-62 it was 1.15 µM (inactive); in the assay with M14, 0.562 µM (active); in the assay with MDA-MB-231 it was 1.18 µM (inactive); in the assay on MOLT-4 it was 0.282 µM (active); in the assay with NCI-H460, 0.581 µM (active). Besides, the GI50 in the assay on NCI-H522 is 0.366 µM (active); with OVCAR-5, 1.9 µM (inactive); in the assay on SF-539 it was 0.673 µM (active); in the assay with SK-OV-3, 2.9 µM (inactive); in the assay with SNB-19, 1.64 µM (inactive); with SR, 0.24 µM (active). Also, the GI50 with SW-620 is 0.518 µM (active); with UO-31 it was 1.11 µM (active).

With `COc1cc(/C=C/c2ccc(/C=C/c3cc(OC)c(OC)c(OC)c3)cc2)cc(OC)c1OC`, the GI50 was 10.5 µM (inactive) with A498; 40.9 µM (inactive) in the assay with A549; 16.3 µM (inactive) with ACHN; 21.6 µM (inactive) in the assay on CAKI-1; > 100 µM (inactive) with CCRF-CEM; 51.3 µM (inactive) in the assay on COLO 205. Further, the GI50 in the assay with HCT-116 is 28.7 µM (inactive); in the assay on HOP-62 it was 16.6 µM (inactive); with M14, 39.3 µM (inactive); with MDA-MB-231, 19.9 µM (inactive); with MOLT-4, > 100 µM (inactive); in the assay on NCI-H460, 25.5 µM (inactive). Further, the GI50 with NCI-H522 was 8.11 µM (inactive); with OVCAR-5, 60.5 µM (inactive); in the assay with SF-539 it was 4.6 µM (inactive); in the assay on SK-OV-3, 6 µM (inactive); in the assay on SNB-19, 13.6 µM (inactive); in the assay on SR, > 100 µM (inactive). Further, the figures for the GI50 in the assay with SW-620 and with UO-31 were > 84.9 µM (inactive) and 36.1 µM (inactive), respectively.

For the compound `Cc1ccc(/C=C/C(=O)c2c([O-])on[n+]2-c2ccccc2)cc1`, the GI50 was 5.86 µM (inactive) in the assay with A498; 3.67 µM (inactive) in the assay on A549; 1.87 µM (inactive) in the assay on ACHN; 1.98 µM (inactive) in the assay on CAKI-1; 1.36 µM (inactive) in the assay on CCRF-CEM; 2.69 µM (inactive) in the assay on COLO 205. Besides, the GI50 in the assay on HCT-116 is 1.84 µM (inactive); in the assay with HOP-62 it was 5.28 µM (inactive); in the assay with M14, 2.34 µM (inactive); in the assay with MDA-MB-231, 4.98 µM (inactive); with MOLT-4, 2.34 µM (inactive); in the assay with NCI-H460, 2.44 µM (inactive). Also, the GI50 in the assay on NCI-H522 was 2.61 µM (inactive); with OVCAR-5 it was 4.17 µM (inactive); in the assay on SF-539 it was 3.28 µM (inactive); in the assay on SK-OV-3 it was 8.09 µM (inactive); in the assay with SNB-19, 3.98 µM (inactive); in the assay with SR it was 2.9 µM (inactive). Besides, the GI50 is 2.46 µM (inactive) with SW-620 and 2.62 µM (inactive) in the assay with UO-31.

In the case of `C/C(=N\O)c1ccc(Nc2nc3ccccc3c3occc23)cc1`, the GI50 in the assay with A498 is 8.41 µM (inactive); in the assay with A549, 3.87 µM (inactive); with ACHN, 9.82 µM (inactive); in the assay on CAKI-1 it was 3.15 µM (inactive); with CCRF-CEM, 4 µM (inactive); in the assay with COLO 205, 4.66 µM (inactive). Moreover, the GI50 in the assay on HCT-116 was 4.89 µM (inactive); in the assay on HOP-62, 11.3 µM (inactive); in the assay with M14, 4.86 µM (inactive); with MDA-MB-231, 2.76 µM (inactive); with MOLT-4, 3 µM (inactive); in the assay on NCI-H460, 1.82 µM (inactive). Moreover, the GI50 is 3.34 µM (inactive) in the assay on NCI-H522; 8.3 µM (inactive) in the assay on OVCAR-5; 6.68 µM (inactive) in the assay with SF-539; 18.6 µM (inactive) in the assay with SK-OV-3; 16.1 µM (inactive) in the assay with SNB-19; 2.37 µM (inactive) with SR. The GI50 with UO-31 is 15.9 µM (inactive).

Regarding `CN(C)C(=S)/N=c1\ssc(=S)n1Cc1cccnc1`, the GI50 in the assay on A498 was 10.1 µM (inactive); in the assay on A549, 4.93 µM (inactive); in the assay on ACHN, 6.76 µM (inactive); with CAKI-1 it was 3.16 µM (inactive); in the assay with CCRF-CEM it was 8.53 µM (inactive); with COLO 205, 2.2 µM (inactive). Also, the GI50 is 3.2 µM (inactive) in the assay on HCT-116; 4.91 µM (inactive) in the assay with HOP-62; 2.37 µM (inactive) with M14; 6.07 µM (inactive) with MDA-MB-231; 6.46 µM (inactive) with MOLT-4; 2.81 µM (inactive) with NCI-H460. Further, the GI50 in the assay with NCI-H522 is 0.531 µM (active); in the assay on OVCAR-5, 35.9 µM (inactive); in the assay with SF-539, 4.02 µM (inactive); in the assay on SK-OV-3, 4.36 µM (inactive); with SNB-19, 5.15 µM (inactive); in the assay on SR, 0.638 µM (active). For the same compound, the results for the GI50 in the assay on SW-620 and with UO-31 were 1.26 µM (inactive) and 13.1 µM (inactive), respectively.

Turning to `Cc1c(C)c(C)c(-n2c(=O)n(C)c(=O)n2-c2cc(C(C)(C)C)cc(C(C)(C)C)c2O)c(C)c1C`, the GI50 with A498 was 13.1 µM (inactive); in the assay on A549 it was 5.66 µM (inactive); in the assay with ACHN it was 12.2 µM (inactive); with CAKI-1, 11.7 µM (inactive); in the assay with CCRF-CEM it was 8.13 µM (inactive); in the assay with COLO 205, 7.19 µM (inactive). The GI50 in the assay on HCT-116 was 5.79 µM (inactive); in the assay with HOP-62 it was 14.4 µM (inactive); in the assay with M14 it was 10.2 µM (inactive); with MDA-MB-231 it was 3.91 µM (inactive); with MOLT-4, 4.18 µM (inactive); in the assay on NCI-H460, 11.4 µM (inactive). Further, the GI50 in the assay with NCI-H522 was 4.54 µM (inactive); with OVCAR-5, 13.3 µM (inactive); in the assay on SF-539, 10.5 µM (inactive); in the assay on SK-OV-3, 12.4 µM (inactive); with SNB-19, 5.74 µM (inactive); in the assay with SR, 3.91 µM (inactive). The results for the GI50 with SW-620 and in the assay with UO-31 were 13.6 µM (inactive) and 3.08 µM (inactive), respectively.

With `COc1ccc(/C=C2\N/C(=N\N=C/C(O)C(O)C(O)C(O)CO)NC2=O)cc1` (configuration not stated), the GI50 was 26.9 µM (inactive) with A498; > 100 µM (inactive) in the assay with A549; 32.2 µM (inactive) with ACHN; > 100 µM (inactive) in the assay on CAKI-1; 38.1 µM (inactive) in the assay on CCRF-CEM; 44.6 µM (inactive) in the assay on COLO 205. The GI50 was 53.6 µM (inactive) in the assay with HCT-116; 24.9 µM (inactive) in the assay on HOP-62; 19.4 µM (inactive) in the assay with M14; 32.7 µM (inactive) with MDA-MB-231; 8.63 µM (inactive) in the assay on MOLT-4; 42.7 µM (inactive) in the assay on NCI-H460. Moreover, the GI50 was 20.3 µM (inactive) in the assay with NCI-H522; > 100 µM (inactive) with OVCAR-5; 19.6 µM (inactive) with SF-539; 24.9 µM (inactive) with SK-OV-3; 45.2 µM (inactive) with SR; 76 µM (inactive) in the assay on SW-620. Besides, the GI50 with UO-31 was 91 µM (inactive).

For the compound `[O-][S+]1SC(=S)C2C=CC=CC21` (configuration not stated), the GI50 in the assay on A498 is 93.1 µM (inactive); in the assay on A549 it was 38.2 µM (inactive); in the assay on ACHN, > 100 µM (inactive); with CAKI-1, > 100 µM (inactive); in the assay on CCRF-CEM, 2.37 µM (inactive); with COLO 205, > 100 µM (inactive). For the same compound, the GI50 is 85.5 µM (inactive) in the assay with HCT-116; 23.2 µM (inactive) in the assay with M14; > 100 µM (inactive) with MDA-MB-231; > 100 µM (inactive) in the assay with MOLT-4; 34 µM (inactive) with NCI-H460; 76.2 µM (inactive) in the assay on NCI-H522. The GI50 is > 100 µM (inactive) in the assay with OVCAR-5; > 100 µM (inactive) with SF-539; > 100 µM (inactive) in the assay with SK-OV-3; 48.4 µM (inactive) in the assay on SNB-19; > 100 µM (inactive) in the assay with SR; > 100 µM (inactive) with SW-620. Moreover, in the assay with UO-31, the GI50 was 36.8 µM (inactive).

Values taken from ChEMBL document CHEMBL1201862, “PubChem BioAssay data set” (2004).
